{
  "source": "patent US20080267935A1",
  "about": "“AraC in combination with a cytokine-secreting cell and methods of use thereof” (Cell Genesys, Inc., priority 2007, published 2008)",
  "key": {"[1]": {"test_system": "Acute myeloid leukemias (AMLs)", "settings": "cited from earlier work; for complete remissions: remission induction"}, "C1498-luc tumor cells": {"test_system": "C1498-luc tumor cells", "assay": "C1498-luc acute myeloid leukemia tumor model, survival and tumor burden", "format": "in vivo, C57BL/6 mice", "experimental": "To assess the in vivo progression of systemic disease, 2.5×10^4 of C1498-luc cells were injected intravenously via tail vein into C57BL/6 mice, their syngeneic host, and the mice were examined every few days for the presence of luminescent signal via live imaging (FIG. 1A). […] A total photon count of 5×10^8 from an individual tumor bearing animal was used as the end point of life expectancy.\nThe efficacy of the combination of cytosine arabinoside (AraC) and GM-CSF secreting cells was evaluated by carrying out animal studies in the syngeneic C1498-luc tumor model. In this model, following challenge with C1498-luc tumor cells as described above, the mice were randomized into control and individual treatment groups, as detailed in the examples. For anti-tumor memory assessment, animals which had previously received AraC in combination with GM-CSF-secreting cells were rechallenged with a lethal dose of C1498-luc cells approximately 100 days after receiving the combination therapy. A typical study in the C1498-luc tumor model makes use of at least 6 and generally 10-15 mice per group in order to obtain statistically significant results. Statistical significance is evaluated using the Student's t-test.\nTumor Model. Female C57Bl/6 mice were challenged with C1498-luc cells via intra-tail-vein injections with 2.5×10^4 inocula. The mice were prepared for in vivo bioluminescence imaging 5 to 10 minutes post injection to confirm the initial trafficking of the tumor cells from tail vein to the lungs. Briefly, the mice were injected i.p. with 1.5 mg/g luciferin substrate (Xenogen Corp., Alameda, Calif.). Fifteen minutes later, the mice were anesthetized for in vivo bioluminescence imaging analysis. […] The animals were monitored by in vivo imaging every 5 to 7 days throughout the study to monitor the systemic progression of the tumor. Individual animals were euthanized when in vivo total photon counts exceeded 5×10^8 and/or when determined to be clinically paralyzed.\nIn Vivo Treatment. […]"}, "[2]": {"parameters": "species or system mice", "settings": "mouse, in vivo", "method": "Hematologic and Phenotypic Analysis. Mice were injected intraperitoneally with AraC using the treatment regimen described below. Peripheral blood was collected by retro-orbital puncture into EDTA-coated capillary tubes on days 1, 2, 3, 4, 6, 8 and 11. Hematologic analysis was performed by IDEXX pre-clinical Research Services (West Sacramento, Calif.).\nPrior to conducting the in vivo efficacy studies in the leukemia tumor models, the hematological toxicity of AraC was determined. The animals received three i.p. injections of 100 mg/kg AraC (volume of injection: 200 μl) in 10 hour-increments. This treatment regimen is equal to a total dose of 900 mg/m^2 and is within the total dose range of 700 to 1400 mg/m^2 used clinically in human patients. Neutropenia and lymphopenia are known to be the primary dose-limiting toxicity observed in patients, so AraC treated mice were monitored for absolute neutrophil and lymphocyte counts. The results are shown in FIG. 2A and FIG. 2B, respectively. After the three AraC administrations, peripheral blood was collected by retro-orbital puncture into EDTA-coated capillary tubes on days 1, 2, 3, 4, 6, 8 and 11 and analyzed for neutropenia. The absolute neutrophil count in the animals dropped to 45 neutrophils/μl, by day 4, rebounded to control level at 600 neutrophils/μl, by day 6 and remained at a steady level of around 600 neutrophils/μl, thereafter (FIG. 2A), which is similar to untreated control animals."}},
  "note": "Where two headings read alike, the source gives them in different places.",
  "data": [
    {"smiles": "Nc1ccn([C@@H]2O[C@H](CO)[C@@H](O)[C@@H]2O)c(=O)n1", "note": "[AraC, 1-β-D-arabinofuranosylcytosine]", "values": [
      {"measurement": "dose-limiting toxicities", "setting": "[1]; patients", "result": "severe neutropenia and lymphopenia"},
      {"measurement": "complete remissions", "setting": "[1]; patients older than 60", "result": "−50", "unit": "%"},
      {"measurement": "complete remissions", "setting": "[1]; younger adults", "result": "~75", "unit": "%"},
      {"measurement": "mice surviving for longer than 150 days post-challenge", "setting": "C1498-luc tumor cells; C1498-luc tumor bearing mice", "result": 30, "unit": "%"},
      {"measurement": "Number of tumor free animals 150 days post challenge", "setting": "C1498-luc tumor cells; monotherapy", "result": "0/10"},
      {"measurement": "Median Survival Time (MST)", "setting": "C1498-luc tumor cells; monotherapy, AraC 3 i.p. injections of 100 mg/kg one day post challenge, or 1×10^6 irradiated C1498.GM s.c. day 7", "result": 61, "unit": "days"},
      {"measurement": "absolute neutrophil count", "setting": "[2]", "result": 600, "unit": "neutrophils/μl"},
      {"measurement": "drop of lymphocyte counts", "setting": "[2]", "result": "greater than 40%"},
      {"measurement": "absolute neutrophil count", "setting": "[2]; ip, 100 mg/kg", "result": 45, "unit": "neutrophils/μl"},
      {"measurement": "recovery of lymphocyte counts", "setting": "[2]; ip, 100 mg/kg", "result": "rebounded by day 6"}
    ]}
  ]
}
